Assay results as given in US20090029979A1, “5-HTX MODULATORS” (BIO-MEDISINSK INNOVASJON AS, priority 2005, published 2009).
Where a name gives a salt, the structure may show the parent alone. Read-outs that look alike come from different tables or passages of the source.

Key:
human 5-HT7(a) receptors = target: T1, human 5-HT7(a) receptors (Homo sapiens, UniProt P34969); assay: Radioligand binding assay with [3H]5-CT, membranes of HEK293 cells stably expressing human 5-HT7(a) receptors; conditions: 5-HT7 ligands, values are pKd ± half-range, read-out: Binding affinity (pKd value) (pKd ± SEM) (converted)
T1 construct: expressed in transfected cells
Description: (§1) Binding assays were performed in 96-well, round-bottom microtiter plates with total reaction volumes of 50-200 μl, containing the indicated concentration of [^3H]GR113808 with or without competing unlabelled ligand in a binding buffer containing 50 mM Tris-HCl (pH 7.5 at RT), 1 mM EDTA, 5 mM EGTA, 2 mM MgCl2, 1 mM ascorbate, 0.1% BSA and 100 μM GTP. The plates were incubated at 23° C. for 60 min and harvested onto UniFilter™-96 GF/C™ (Packard Instrument Co., Meriden, Conn., USA), presoaked in 0.3% polyethyleneimine (Sigma), using a Packard FilterMate Universal Harvester with 96-well format, and washed 4-6 times with approximately 0.25 ml/well of ice-cold buffer, containing 50 mM Tris-HCl (pH 7.0 at RT) and 2 mM MgCl2. The filters were dried and counted at approximately 40% efficiency in a Top-Count liquid scintillation counter (Packard), using 20 μl per filter well of Micro-Scint liquid scintillation cocktail (Packard).
(§2) The same materials and methods described in example 83 were used for the biological testing of hydrophilic 5-HT7 and 5-HT2A ligands. Membrane preparations of HEK293 cell lines stably expressing human 5-HT7(a) receptors (Krobert et al. 2001), or HEK293 cells transiently transfected with human 5-HT2A receptor were used in the binding assays. 5-Carboxamido [^3H]tryptamine trifluoroacetate ([^3H]5-CT) and [^3H]ketanserin were used as radioligands in binding assays testing 5-HT7 and 5-HT2A ligands, respectively.
[^3H]5-CT (91 Ci/mmol) was from Amersham (Buckinghamshire, England). [^3H]ketanserin (72.2 Ci/mmol) was from Perkin Elmer (Boston, Mass., USA).

human 5-HT2A receptor = target: T2, human 5-HT2A receptor (Homo sapiens, UniProt P28223); assay: Radioligand binding assay with [3H]ketanserin, membranes of HEK293 cells transiently transfected with human 5-HT2A receptor; conditions: 5-HT2A ligands, values are pKd ± half-range, read-out: Binding affinity (pKd value) (pKd ± SEM) (converted)
T2 construct: expressed in transfected cells; host or cells: HEK293, transient transfection
Description: as §1
as §2, with “5-Carboxamido [^3H]tryptamine trifluoroacetate ([^3H]5-CT) and [^3H]ketanserin were used as radioligands in binding assays testing 5-HT7 and 5-HT2A ligands, respectively.” left out

human 5-HT4(b) receptors [1] = target: T3, human 5-HT4(b) receptors (Homo sapiens, UniProt Q13639); assay: Radioligand binding assay with [3H]GR113808, membranes of HEK293 cells stably expressing human 5-HT4(b) receptors
T3 construct: expressed in transfected cells
Description: (§3) The development of HEK293 cell lines stably expressing human 5-HT4(b) receptors was described and published previously (Bach et al. 2001). Briefly, HEK293 cells (ATCC) were grown in Dulbecco's modified Eagle's medium with 10% fetal calf serum and penicillin (100 U/ml) and streptomycin (100 μg/ml). Cells were transfected with plasmid DNA (pcDNA3.1(−) containing human 5-HT4(b) receptor cDNA) using SuperFect Transfection Reagent (QIAGEN) according to the manufacturers protocol. Serial dilutions of transfected cells were plated in 96 well plates containing G418 (geneticin; Amersham) at 0.4 mg/ml, and isolated single colonies of cells transformed to the neomycin-resistant phenotype were expanded and tested for expression of serotonin receptors by measuring serotonin-stimulated adenylyl cyclase activity (Themmen et al. 1993). Transformed cells were always grown in the presence of G418 (0.4 mg/ml). For binding and adenylyl cyclase analysis, stable cell lines were grown and maintained in UltraCULTURE™ general purpose serum-free medium (BioWhittaker, Walkersville, Md., USA), supplemented with L-glutamine (2 mM), penicillin (100 U/ml) and streptomycin (100 μg/ml).
(§4) Membranes were prepared from stably transfected HEK293 cells cultured on 150-mm cell culture dishes and grown to 80% confluence in serum-free medium (UltraCULTURE™, BioWhittaker) with penicillin (10 U/ml) and 2 mM L-Glutamine (BioWhittaker). Cells were washed twice with 10 ml ice-cold HBSS, scraped with a rubber policeman in 10 ml ice-cold HBSS and collected by centrifugation at 800 g for 5 min at 4° C. The cell pellet was resuspended in 1 ml/dish ice-cold STE buffer (27% (w/v) sucrose, 50 mM Tris-HCl, pH 7.5 at 20° C., 5 mM EDTA) and homogenized with an Ultra-Turrax (IKA) homogenizer, using five 10 s bursts with 30 s cooling in ice-water between bursts. To remove nuclei, the homogenate was centrifuged at 300 g for 5 min at 4° C. and the supernatant was further centrifuged at 17000 g for 20 min at 4° C. and the supernatant removed. The crude membrane pellet was resuspended with ten strokes of tight fitting pestle B in a Dounce glass-glass homogenizer in 1 ml/dish ice-cold TE (50 mM Tris-HCl, pH 7.5 at RT, 5 mM EDTA). This procedure was repeated twice and the resuspended membranes were finally aliqouted and flash frozen in liquid nitrogen and stored at −70° C. until use.
as §1
(§5) Binding and adenylyl cyclase data were analyzed by non-linear regression using Microsoft Excel with the Solver add-in, using the below equations.
Competitive binding assays—The data were fit to the equation
where a is non-specific binding, b is total binding in the absence of competitor, c is IC50, and x is the concentration of competitor. Where relevant, relative binding data were obtained by recalculating the data using a=0 and b=100.
IC50 values from competitive binding assays were converted to Kb values by the method of Cheng and Prusoff (1973).

human 5-HT4(b) receptors [2] = target: T3, human 5-HT4(b) receptors; assay: Adenylyl cyclase assay in membranes of HEK293 cells stably expressing human 5-HT4(b) receptors; format: biochemical; conditions: for Kb: where n = 2, ± half-range, read-out: Antagonist pKb value (pKb ± SEM) (converted)
Description: as §3, §4
Adenylyl cyclase activity was measured by determining conversion of [α-^32P]ATP to [^32P]cAMP in membranes prepared in STE by homogenization of cells grown and washed as described above in a Dounce glass-glass homogenizer by 10 strokes with the tight-fitting pestle. Membranes were kept on ice prior to assay. Adenylyl cyclase activities were measured on 10-μl aliquots in a final volume of 50 μl in the presence of 0.1 mM [α-^32P]ATP (1-2×10^6 cpm/assay), 4 mM MgCl2, 20 μM GTP, 1 mM EDTA, 1 mM [^3H]cAMP (ca. 10,000 cpm/assay), 1 μM 3-isobutyl-1-methyl xanthine (IBMX; Sigma), a nucleoside triphosphate regenerating system consisting of 20 mM creatine phosphate (Sigma), 0.2 mg/ml creatine phosphokinase (Sigma) and 40 U/ml myokinase (Sigma) and additives described in the text and figures. When forskolin (Calbiochem, La Jolla, Calif., USA) was used the concentration was 100 μM. Incubations were for 20 min at 32° C. Cyclic AMP formed was quantified by the double column chromatography system of Salomon et al. (1974) as modified by Bockaert et al. (1976).
as §5
Activation of adenylyl cyclase—The data were fit to the equation
where a is basal adenylyl cyclase activity, b is maximal adenylyl cyclase activity stimulated by the agonist, c is EC50, and x is the concentration of agonist.

[3] = [3H]GR113808, HEK293 membranes, human 5-HT4(b), where n = 2, ± half-range, read-out: Binding affinity (pKd value) (pKd ± SEM) (converted)

T1 sequence (P34969 1-445 isoform P34969-2): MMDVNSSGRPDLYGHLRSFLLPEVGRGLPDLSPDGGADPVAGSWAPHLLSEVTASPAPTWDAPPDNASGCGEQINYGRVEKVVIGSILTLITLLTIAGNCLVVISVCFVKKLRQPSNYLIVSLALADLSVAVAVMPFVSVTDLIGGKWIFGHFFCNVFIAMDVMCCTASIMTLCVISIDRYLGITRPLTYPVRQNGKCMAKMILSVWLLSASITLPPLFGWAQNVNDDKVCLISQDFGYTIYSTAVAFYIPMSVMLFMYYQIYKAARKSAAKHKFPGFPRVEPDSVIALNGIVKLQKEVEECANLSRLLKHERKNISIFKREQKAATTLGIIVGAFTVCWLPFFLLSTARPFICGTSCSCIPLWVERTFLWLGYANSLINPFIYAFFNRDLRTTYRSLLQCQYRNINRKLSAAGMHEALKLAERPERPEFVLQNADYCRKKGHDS
T3 sequence (Q13639 whole entry): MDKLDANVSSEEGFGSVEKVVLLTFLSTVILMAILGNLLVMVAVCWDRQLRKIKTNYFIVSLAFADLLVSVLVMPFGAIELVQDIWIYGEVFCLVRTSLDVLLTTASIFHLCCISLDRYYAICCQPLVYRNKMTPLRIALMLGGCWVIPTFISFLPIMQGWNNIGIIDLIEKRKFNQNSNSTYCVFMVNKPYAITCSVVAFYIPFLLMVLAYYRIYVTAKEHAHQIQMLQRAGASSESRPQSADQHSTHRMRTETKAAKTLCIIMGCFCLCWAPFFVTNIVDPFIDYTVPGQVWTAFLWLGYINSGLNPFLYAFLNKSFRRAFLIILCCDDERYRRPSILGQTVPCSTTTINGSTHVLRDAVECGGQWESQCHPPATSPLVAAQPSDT
T2 sequence (P28223 whole entry): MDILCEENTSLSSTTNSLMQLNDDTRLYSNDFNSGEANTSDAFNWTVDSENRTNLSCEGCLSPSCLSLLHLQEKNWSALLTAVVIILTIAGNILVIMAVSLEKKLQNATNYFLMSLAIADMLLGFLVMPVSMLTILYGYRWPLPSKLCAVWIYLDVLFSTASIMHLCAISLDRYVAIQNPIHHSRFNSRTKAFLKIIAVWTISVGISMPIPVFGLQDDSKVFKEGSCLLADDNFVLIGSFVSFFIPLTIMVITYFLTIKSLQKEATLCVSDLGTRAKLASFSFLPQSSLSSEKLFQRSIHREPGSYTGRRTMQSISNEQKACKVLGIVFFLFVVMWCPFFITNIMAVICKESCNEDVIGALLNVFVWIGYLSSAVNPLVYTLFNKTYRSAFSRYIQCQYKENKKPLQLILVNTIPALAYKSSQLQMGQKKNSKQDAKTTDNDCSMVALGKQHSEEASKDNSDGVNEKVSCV

SMILES | Kd (human 5-HT7(a) receptors) [µM] | Agonist/Antagonist properties (human 5-HT4(b) receptors [2]) | Kb (human 5-HT4(b) receptors [2]) [µM] | also measured
COC(=O)c1ccc(CN2CCN(CCCCC34CCCc5cccc(c53)NC4=O)CC2)cc1 (centres unmarked) [Example 75] | 15.8 | – | – | –
COC(=O)c1ccc(CN2CC=C(c3c[nH]c4ccc(OC)cc34)CC2)cc1 [Example 9] | 8.51 | – | – | –
O=C(O)c1ccc(CN2CCN(CCCCC34CCCc5cccc(c53)NC4=O)CC2)cc1 (centres unmarked) [Example 76] | 135 | – | – | –
COC(=O)c1ccc(CN2CCC(NC(=O)C34CC5CC(CC(C5)C3)C4)C2)cc1 (centres unmarked) [Example 72] | – | – | – | Kd (human 5-HT2A receptor): 49 µM
COC(=O)c1ccc(CN2CC=C(c3c[nH]c4ccccc34)CC2)cc1 [Example 68] | 11.5 | – | – | –
O=C(O)CCCN1CCC(COC(=O)c2c[nH]c3ccccc23)CC1 [Example 13, 1H-indole-3-carboxylic acid 1-(3-carboxy-propyl)-piperidin-4-ylmethyl ester] | – | Antagonist | 0.00708 | Kd (human 5-HT4(b) receptors [1]; [3]): 0.000912 µM
COC(=O)CCCCCN1CCC(CNC(=O)c2c3n(c4ccccc24)CCCO3)CC1 [Example 50] | – | Antagonist | 0.000759 | Kd (human 5-HT4(b) receptors [1]): 0.000135 µM
CCOC(=O)CCCN1CC=C(c2c[nH]c3ccccc23)CC1 [Example 70] | 0.661 | – | – | –
CCOC(=O)CCCN1CCC(CNC(=O)c2c[nH]c3ccccc23)CC1 [Example 60] | – | Antagonist | 1.62 | Kd (human 5-HT4(b) receptors [1]; [3]): 0.11 µM
O=C(O)c1ccc(CN2CC=C(c3c[nH]c4ccccc34)CC2)cc1 [Example 69] | 81.3 | – | – | –
CCOP(=O)(CCN1CCC(COC(=O)c2cccc3ccccc23)CC1)OCC [Example 27] | – | Weak partial | 0.0191 | Kd (human 5-HT4(b) receptors [1]; [3]): 0.0158 µM
COc1cc(OC)c(C(=O)CCCCN2CCC3(CC2)NC(=O)NC3=O)cc1NS(=O)(=O)c1ccc(C(F)(F)F)cc1 [RS102221, 8-(5-(2,4-Dimethoxy-5-(4-trifluoromethylphenylsulphonamido)phenyl-5-oxopentyl]-1,3,8-triazaspiro[4.5]decane-2,4-dione hydrochloride, reference compound] | – | – | – | Kd (human 5-HT2A receptor): 4.57 µM
